Experimental findings from PMC6359675, “Functionalization of the Chalcone Scaffold for the Discovery of Novel Lead Compounds Targeting Fungal Infections” (Molecules, 2019) are described below.

Values joined by “and” are separate entries in the source; they are usually repeats but may differ in a detail not shown here. Identical values can stand only once. Like-named read-outs stand apart in the source and are kept apart here.

One data set relates to C. parapsilosis. Put plainly: In vitro susceptibility testing, C. parapsilosis clinical isolate. The following applies: Lodderomyces parapsilosis; clinical isolate; read-out: IC50 C. parapsilosis. The class given is cell-based. From the text:
(§1) The yeasts included in the present study were Candida albicans ATCC 10231 (American Type Culture Collection) and a collection of yeasts recovered from a variety of clinical specimens, i.e., blood, urine, genital swabs, bronchoalveolar lavage, nail specimens, collected at the Microbiology Unit, St. Orsola Malpighi University Hospital, Bologna, Italy. The clinical strain isolates were identified by standard procedures, including colony morphology on chromogenic agar (CHROMagar Candida medium, Becton Dickinson, Heidelberg, Germany) and confirmed by MALDI Biotyper System using matrix-assisted laser desorption ionization–time of flight mass spectrometry (MALDI-TOF MS, Bruker Daltonik, GmbH, Germany).
(§2) The in vitro antifungal activity of the chalcones was evaluated by a microdilution broth method in accordance with the guidelines provided by the EUCAST Edef 7.3 [22]. Briefly, all strains were cultured on Sabauraud dextrose, then inocula, prepared at 0.5 McFarland, were diluted 1:20 in RPMI-1640 medium (Gibco®, ThermoFisher Scientific Inc., Waltham, MA, USA), containing glucose 2%, 0.3% levo-glutamine buffered to pH 7.0 with 0.165 M 3-(N-morpholino)propanesulfonic acid (MOPS) to yield 1-5 × 10^5 cells/mL. A total of 100 µL of the yeast suspension was inoculated in a 96-well microplate and incubated with 100 µL of serially 2-fold dilution of the compound in the range 200–6.25 µM. The following controls were included: yeast suspensions incubated in RPMI-1640 culture medium (positive growth control), or supplemented with dilutions of DMSO, or fluconazole (Sigma-Aldrich, St. Louis, MO, USA) as a commercial drug. To check the background turbidity of reagents and the sterility of the procedure, dilutions of each compound were incubated in RPMI-1640 culture medium, without yeast inoculum. The inoculated plate was incubated at 37 °C for 24 h, and subsequently the optical density at 630 nm was measured by the Multiskan Ascent microplate reader (Thermo Fisher Scientific Inc.). The effectiveness of the compounds was expressed as percent inhibition relative to the positive growth control when the inhibition […] the 50% at 100 µM. The IC50 value was determined by interpolation of the dose–response curves generated by plotting the percentages of growth inhibition, relative to the drug-free control (set to 100% of growth), as a function of the tested concentrations (on a logarithm scale). Statistical analysis was carried out by the nonlinear regression method using GraphPad Prism version 5.0 for Windows (GraphPad Software, San Diego, CA, USA). All assays were performed in triplicate and at least two independent experiments were carried out.

For the next data set, the system named is C. lusitaniae. Put plainly: In vitro susceptibility testing, C. lusitaniae clinical isolate. Format: cell-based. The following applies: Clavispora lusitaniae; clinical isolate; read-out: IC50 C. lusitaniae.
Excerpt: as §1, §2

The test system of another data set is C. glabrata. Put plainly: In vitro susceptibility testing, C. glabrata clinical isolate. Format: cell-based. As to conditions: Nakaseomyces glabratus; clinical isolate; read-out: IC50 C. glabrata.
Excerpt: as §1, §2

The test system of another data set is C. utilis. Put plainly: In vitro susceptibility testing, C. utilis clinical isolate. As to conditions: Williopsis jadinii; clinical isolate; read-out: IC50 C. utilis. Format: cell-based.
Excerpt: as §1, §2

In the next data set the test system is C. tropicalis. Put plainly: In vitro susceptibility testing, C. tropicalis clinical isolate. The class given is cell-based. As to conditions: Candida tropicalis; clinical isolate; read-out: IC50 C. tropicalis.
Excerpt: as §1, §2

For another data set, the system named is R. mucilaginosa. Put plainly: In vitro susceptibility testing, R. mucilaginosa clinical isolate. The following applies: clinical isolate; read-out: IC50 R. mucilaginosa. The class given is cell-based.
Excerpt: as §1, §2

Another data set deals with C. albicans. Put plainly: In vitro susceptibility testing, C. albicans clinical isolate. Format: cell-based. As to conditions: Candida albicans; clinical isolate; mean and 95% confidence interval; read-out: IC50 C. albicans.
Excerpt: as §1, §2

In a further data set the test system is C. krusei. Put plainly: In vitro susceptibility testing, C. krusei clinical isolate. Format: cell-based. The following applies: Pichia kudriavzevii; clinical isolate; read-out: IC50 C. krusei.
Excerpt: as §1, §2

Another data set relates to S. clavata. Put plainly: In vitro susceptibility testing, S. clavata clinical isolate. Format: cell-based. As to conditions: clinical isolate; read-out: IC50 S. clavata.
Excerpt: as §1, §2

A further data set relates to C. neoformans. Put plainly: In vitro susceptibility testing, C. neoformans clinical isolate. The class given is cell-based. The following applies: Cryptococcus neoformans; clinical isolate; read-out: IC50 C. neoformans.
Excerpt: as §1, §2

Another data set deals with C. albicans ATCC 10231. Put plainly: In vitro susceptibility testing, microdilution broth (EUCAST), C. albicans control strain. The following applies: for IC50 / inhibition at 100 µM: Candida albicans; for IC50: ATCC10231, C. albicans ATCC 10231, mean and 95% confidence interval; for inhibition at 100 µM: ATCC10231, 24 h; for inhibition at 100 µM / antifungal activity against C. albicans growth, in words: C. albicans ATCC 10231; for antifungal activity against C. albicans growth, in words: screen at 100 μM. Format: cell-based, Candida albicans. The protocol: as §2
(In general: Broth dilution looks for growth in wells or tubes with falling amounts of substance.)

Data set [1] can be described thus: Cytotoxicity test on Vero cells (WST8/CCK-8 cell viability). Format: cell-based, African green monkey. The following applies: African green monkey, Vero cells (ATCC CCL-81), Vero cells, mean and 95% confidence interval. The protocol:
(§3) African green monkey kidney cells (Vero ATCC CCL-81) were cultured in Eagle’s Minimal Essential Medium (MEM) (Sigma-Aldrich), supplemented with 10% fetal bovine serum (FBS) (Carlo Erba Reagents, Milan, Italy), 100 U/mL penicillin, and 100 µg/mL streptomycin at 37 °C with 5% CO2. For experiments, cells were seeded into 96-well plates at 10^4 cells/well, and incubated at 37 °C for 24 h. Following washes with PBS, cell monolayer was incubated with 100 µL of serially 2-fold dilution of the compound in the range 200–6.25 µM. Both untreated cells and cells incubated with medium containing solvent dilutions were included in each experiment as controls.
(§4) The cell viability was assessed by a WST8-based assay according to the manufacturer’s instructions (CCK-8, Cell Counting Kit-8, Dojindo Molecular Technologies, Rockville, MD, USA). After 72 h of incubation, culture medium was removed from each well, the monolayer was washed with PBS, and 100 µL of fresh medium containing 10 µL of CCK-8 solution were added. Following a 2 h at 37 °C, the absorbance was measured at 450/630 nm; data were calculated as the percentage of the cell viability relative to the untreated controls.

In the next data set the test system is Vero cells (ATCC CCL-81). The description is as above. Format: cell-based, African green monkey. As to conditions: 72 h, up to the highest concentration of 200 μM. The protocol: as §3, §4

Take `OC(Cn1cncn1)(Cn1cncn1)c1ccc(F)cc1F` [FLC, fluconazole, reference compound]: the IC50 was 37 nM and 0.01 µg/mL with C. parapsilosis; 50 nM and 0.015 µg/mL in the data set with C. lusitaniae; 14.4 µM and 4.4 µg/mL with C. glabrata; 1.56 µM and 0.5 µg/mL with C. utilis; 0.4 µM in the data set on C. tropicalis; 1.6 mM and 491 µg/mL in the data set with R. mucilaginosa. Besides, the IC50 is 420 nM and 0.13 µg/mL with C. albicans; 64.6 µM and 19.8 µg/mL with C. krusei; 40 nM and 0.012 µg/mL in the data set on S. clavata; 256 µM and 78.4 µg/mL with C. neoformans; 0.25 µM with C. albicans ATCC 10231 (read-out: IC50); 0.07 µg/mL in the data set on C. albicans ATCC 10231 (read-out: IC50 [μg/mL]).
With `C#CCOc1ccc(C(=O)/C=C/c2ccncc2)cc1` [Compound 37, (E)-1-(4-(prop-2-yn-1-yloxy)phenyl)-3-(pyridin-4-yl)prop-2-en-1-one], the melting point (as a rule, the temperature of the solid-liquid transition) was in the range of 99 to 101 °C. Moreover, in the data set on C. albicans ATCC 10231, the inhibition (as a rule, the drop in the measured response relative to a control, in per cent) at 100 µM is below 1% and the “antifungal activity against C. albicans growth, in words” value (from here on “antifungal activity”) is reported as “devoid of any effect”.
As for `CC(C)=CCOc1ccc(C(=O)/C=C/c2ccc([N+](=O)[O-])cc2)cc1` [Compound 34, (E)-1-(4-((3-methylbut-2-en-1-yl)oxy)phenyl)-3-(4-nitrophenyl)prop-2-en-1-one], the melting point was 100 to 102 °C. In addition, in the data set on C. albicans ATCC 10231, the inhibition at 100 µM is 37.9 ± 5.2% and the “antifungal activity” value was “inactive”.
For the molecule `C#CCOc1ccc(C(=O)/C=C/c2ccc(Cl)cc2Cl)c(OC)c1` [Compound 11, (E)-3-(2,4-dichlorophenyl)-1-(2-methoxy-4-(prop-2-yn-1-yloxy)phenyl)prop-2-en-1-one], the melting point is 174 to 175 °C. Moreover, in the data set on C. albicans ATCC 10231, the inhibition at 100 µM worked out at 9.8 ± 6.7% and the “antifungal activity” value was “inactive”.
The molecule `C#CCOc1ccc(C(=O)/C=C/c2ccc(Cl)cc2Cl)c(OCC#C)c1` [Compound 23, (E)-1-(2,4-bis(prop-2-yn-1-yloxy)phenyl)-3-(2,4-dichlorophenyl)prop-2-en-1-one] displayed a melting point of 166 to 168 °C. Further, in the data set with C. albicans ATCC 10231, at 100 µM the inhibition was 4.6 ± 13.8% and the “antifungal activity” value is “inactive”.
In the same order, the values of `CC(C)=CCOc1ccc(C(=O)/C=C/c2ccc(Cl)cc2Cl)c(O)c1` [Compound 19, (E)-3-(2,4-dichlorophenyl)-1-(2-hydroxy-4-((3-methylbut-2-en-1-yl)oxy)phenyl)prop-2-en-1-one] are 191 to 193 °C, 5.9 ± 5.7% and “inactive”.
The molecule `CC(C)=CCOc1ccc(C(=O)/C=C/c2cccnc2)cc1` [Compound 32, (E)-1-(4-((3-methylbut-2-en-1-yl)oxy)phenyl)-3-(pyridin-3-yl)prop-2-en-1-one] yielded a melting point of 87 to 88 °C. Further, in the data set on C. albicans ATCC 10231, the inhibition at 100 µM was below 1% and the “antifungal activity” value is “devoid of any effect”.
`O=C(/C=C/c1ccccc1)c1cc(Cl)ccc1O` [Compound 1, (E)-1-(5-Chloro-2-hydroxyphenyl)-3-phenylprop-2-en-1-one]: the IC50 in the data set on C. parapsilosis is 200 µM and 51.7 µg/mL; with C. lusitaniae, 100 µM and 25.9 µg/mL; in the data set with C. glabrata, 200 µM and 51.7 µg/mL; with C. utilis, 84.5 µM and 21.9 µg/mL; with C. tropicalis, 200 µM and 51.7 µg/mL; with R. mucilaginosa, 83.7 µM and 21.7 µg/mL. The IC50 is 62.9 µM and 16.3 µg/mL in the data set on C. albicans; 200 µM and 51.7 µg/mL in the data set on C. krusei; 200 µM and 51.7 µg/mL in the data set on S. clavata; 26.4 µM and 6.8 µg/mL in the data set on C. neoformans; 52.8 µM with C. albicans ATCC 10231 (read-out: IC50); 13.7 µg/mL in the data set with C. albicans ATCC 10231 (read-out: IC50 [μg/mL]). Further, the figures for the CC50 at 72 h in data set [1] (read-out: CC50) and in data set [1] (read-out: CC50 [μg/mL]) were 174 µM and 45 µg/mL, respectively. In the data set on C. albicans ATCC 10231, this molecule had an inhibition at 100 µM of 65.2 ± 3.9%.
Molecule `C#CCOc1ccc(C(=O)/C=C/c2ccc([N+](=O)[O-])cc2)cc1` [Compound 38, (E)-3-(4-nitrophenyl)-1-(4-(prop-2-yn-1-yloxy)phenyl)prop-2-en-1-one] yielded a melting point of 103 to 105 °C. Moreover, in the data set on C. albicans ATCC 10231, the inhibition at 100 µM is 46.3 ± 3.7% and the “antifungal activity” value was “inactive”.
Take `CC(C)=CCOc1ccc(C(=O)/C=C/c2cccnc2)c(O)c1` [Compound 20]: the “toxicity on Vero cells, in words” value with Vero cells (ATCC CCL-81) was “moderately toxic”. In addition, the figures for the CC50 at 72 h in data set [1] (read-out: CC50) and in [1] (read-out: CC50 [μg/mL]) were 54.3 µM and 15.9 µg/mL, respectively. For the same molecule, the values for the IC50 with C. albicans ATCC 10231 (read-out: IC50) and with C. albicans ATCC 10231 (read-out: IC50 [μg/mL]) were 16.8 µM and 4.9 µg/mL, respectively. The inhibition at 100 µM with C. albicans ATCC 10231 turned out to be 81.5 ± 4.7%.
For the molecule `O=C(/C=C/c1cccc(F)c1)c1cc(Cl)ccc1O` [Compound 3, (E)-1-(5-Chloro-2-hydroxyphenyl)-3-(3-fluorophenyl)prop-2-en-1-one], the IC50 was 41.5 µM and 11.5 µg/mL in the data set with C. parapsilosis; 38.5 µM and 10.7 µg/mL with C. lusitaniae; > 200 µM and > 55.3 µg/mL in the data set with C. glabrata; 100 µM and 27.7 µg/mL with C. utilis; > 200 µM and > 55.3 µg/mL in the data set on C. tropicalis; > 200 µM and > 55.3 µg/mL in the data set on R. mucilaginosa. In addition, the IC50 is 100 µM and 27.7 µg/mL in the data set with C. albicans; > 200 µM and > 55.3 µg/mL with C. krusei; 37.2 µM and 10.3 µg/mL in the data set with S. clavata; 35.2 µM and 9.7 µg/mL with C. neoformans; 57.7 µM with C. albicans ATCC 10231 (read-out: IC50); 16 µg/mL in the data set with C. albicans ATCC 10231 (read-out: IC50 [μg/mL]). Further, the CC50 at 72 h in data set [1] (read-out: CC50) amounted to 152 µM; in data set [1] (read-out: CC50 [μg/mL]), 42 µg/mL. The molecule further registered an inhibition at 100 µM in the data set with C. albicans ATCC 10231 of 64.8 ± 1.5%.
